According to paper PMC8942775, “Lipidated Calcitonin Gene-Related Peptide (CGRP) Peptide Antagonists Retain CGRP Receptor Activity and Attenuate CGRP Action In Vivo” (Frontiers in Pharmacology, 2022):

What was measured:
mCGRP receptor = mCGRP receptor (Mus musculus, UniProt Q9R1W5+Q9WTJ5); assay: cell-based; conditions: SEM
Method: (§1) Cells were grown in a humidified incubator at 37°C and 5% CO2 and seeded into 96-well plates at a density of 20,000 cells/well. The following day, Cos-7 cells were transiently transfected using Polyethylenimine (PEI) using a 1:1 ratio of receptor:RAMP DNA.
(§2) Transfected Cos-7 cells were incubated with agonist in the presence or absence of antagonist at 37°C for 15 min. cAMP production was terminated by aspirating all the media in the wells, followed by the addition of 50 μl of ice-cold ethanol.
(§3) The Hill slope was constrained to one following agonist analyses. The Schild slope was also constrained to one. The pA2 and pKB values were obtained from the Schild analysis. For washout experiments, the same method of analysis was applied to the antagonists, but with minor revisions. The Schild analysis relied on the matched control agonist curves i.e. those derived from the same experimental conditions as the agonist + antagonist curves. Normalization was also specific to the matched control agonist curves.
(§4) Mean pEC50, pKB and pA2 values from at least three independent experiments before normalization were also presented as mean ± SEM. pEC50, pKB and pA2 values from independent experiments were grouped and compared by unpaired Student’s t-test or by one-way ANOVA. […]

mAMY1 receptor = target: T1, mAMY1 receptor (Mus musculus, UniProt Q60755+Q9WTJ5); assay: cell-based; conditions: SEM
T1 sequence (Q60755 42-496 isoform Q60755-2 limits assumed): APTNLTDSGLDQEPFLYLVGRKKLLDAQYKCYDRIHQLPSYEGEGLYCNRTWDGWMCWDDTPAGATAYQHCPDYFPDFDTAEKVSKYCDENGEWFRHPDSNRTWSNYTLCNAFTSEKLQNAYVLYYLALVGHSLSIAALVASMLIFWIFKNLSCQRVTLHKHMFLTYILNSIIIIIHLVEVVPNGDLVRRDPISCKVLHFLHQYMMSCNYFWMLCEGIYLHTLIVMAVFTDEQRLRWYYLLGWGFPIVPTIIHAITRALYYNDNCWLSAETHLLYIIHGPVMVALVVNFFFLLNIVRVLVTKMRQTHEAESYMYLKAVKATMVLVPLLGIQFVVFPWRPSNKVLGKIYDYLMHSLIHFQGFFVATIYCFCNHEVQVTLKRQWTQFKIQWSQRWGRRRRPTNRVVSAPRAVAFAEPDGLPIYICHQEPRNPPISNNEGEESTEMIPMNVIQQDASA
T1 sequence (Q9WTJ5 27-148): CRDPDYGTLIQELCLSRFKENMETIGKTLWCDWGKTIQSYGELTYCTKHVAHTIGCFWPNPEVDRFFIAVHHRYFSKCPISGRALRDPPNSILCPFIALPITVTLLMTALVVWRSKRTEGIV
Method: as §1, §2, §3, §4

Sequence of mCGRP receptor (Q9R1W5 23-463, one chain of several): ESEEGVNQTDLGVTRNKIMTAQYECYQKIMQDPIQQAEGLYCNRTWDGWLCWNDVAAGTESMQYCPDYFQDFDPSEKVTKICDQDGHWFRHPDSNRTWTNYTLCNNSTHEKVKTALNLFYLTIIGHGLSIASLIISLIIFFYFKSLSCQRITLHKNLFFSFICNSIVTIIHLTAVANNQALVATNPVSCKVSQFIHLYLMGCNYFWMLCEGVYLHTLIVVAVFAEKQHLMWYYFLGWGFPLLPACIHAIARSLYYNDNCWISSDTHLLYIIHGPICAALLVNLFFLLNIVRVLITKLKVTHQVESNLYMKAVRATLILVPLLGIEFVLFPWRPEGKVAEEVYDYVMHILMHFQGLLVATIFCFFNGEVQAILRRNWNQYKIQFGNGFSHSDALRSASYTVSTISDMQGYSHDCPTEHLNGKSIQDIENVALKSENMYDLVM

CC(C)C[C@H](NC(=O)CNC(=O)[C@H](C)NC(=O)[C@H](CC(C)C)NC(=O)[C@H](CCCNC(=N)N)NC(=O)[C@H](Cc1cnc[nH]1)NC(=O)[C@@H](NC(=O)[C@@H](N)C(C)C)[C@@H](C)O)C(=O)N[C@@H](CC(C)C)C(=O)N[C@@H](CO)C(=O)N[C@@H](CCCNC(=N)N)C(=O)N[C@@H](CO)C(=O)NCC(=O)NCC(=O)N[C@H](C(=O)N[C@H](C(=O)N[C@@H](CCCCN)C(=O)N[C@@H](CC(N)=O)C(=O)N[C@@H](CC(N)=O)C(=O)N[C@@H](Cc1ccccc1)C(=O)N[C@H](C(=O)N1CCC[C@H]1C(=O)N[C@H](C(=O)N[C@@H](CC(N)=O)C(=O)N[C@H](C(=O)NCC(=O)N[C@@H](CO)C(=O)N[C@@H](CCCCN)C(=O)N[C@@H](C)C(=O)N[C@@H](Cc1ccccc1)C(N)=O)C(C)C)[C@@H](C)O)C(C)C)C(C)C)C(C)C [αCGRP8-37] showed a Kb (mCGRP receptor) of 1 nM and a Kb (mAMY1 receptor) of 24.5 nM.
